Measurements from ChEMBL document CHEMBL1135637, “Quantitative structure--activity relations for gammadelta T cell activation by phosphoantigens” (J Med Chem, 2002).

Test: Effective concentration to activate gammadelta T cells
Type: functional, cell-based
Details: t-cell

Compound	EC50 [µM]
C/C=C\COP(=O)(O)O	158
O=C(O)COP(=O)(O)O [PHOSPHOGLYCOLIC ACID]	707
C=CCOP(=O)(O)OP(=O)(O)O [ALLYL PYROPHOSPHATE]	3.16
CC(C)=CCOP(=O)(O)O	158
CCOP(=O)(OCC)OP(=O)(OCC)OCC [ETHYL PYROPHOSPHATE]	3.16
CC(OP(=O)(O)O)C(=O)O (stereo not given)	1580
CCC(C)OP(=O)(O)O (stereo not given)	2240
CC(C)OP(=O)(O)O [PHOSPHORYLISOPROPANE]	707
C=C(C)CCOP(=O)(O)O [ISOPENTENYL PHOSPHATE]	158
O=P(O)(O)OCC(O)CO (stereo not given)	1580
NCCCC(O)(P(=O)(O)O)P(=O)(O)O [ALENDRONIC ACID]	0.9
C/C=C\COP(=O)(O)OP(=O)(O)O [CROTYL PYROPHOSPHATE]	3.16
O=P(O)(O)OCCO	224
C[C@@]1(CCOP(=O)(O)OP(=O)(O)O)CO1	0.4
COP(=O)(O)O [PHOSPHORIC ACID MONOMETHYL ESTER]	707
CCCOP(=O)(O)O [PROPYL PHOSPHATE]	707
O=P(O)(O)O[C@@H]1OC[C@@H](O)[C@H](O)[C@H]1O	1580
C=CCOP(=O)(O)O	158

Further lines, results first:

EC50 [µM]	Compound
0.224	CC(O)(CI)CCOP(=O)(O)OP(=O)(O)OP(=O)(O)O (stereo not given) [IODOHYDRIN TRIPHOSPHATE]
14.1	CC(O)(CBr)CCOP(=O)(O)OP(=O)(O)OP(=O)(O)OCC(C)(O)CBr (stereo not given)
5.66	NCCC(O)(P(=O)(O)O)P(=O)(O)O [PAMIDRONIC ACID]
44.7	CCC(=O)COP(=O)(O)OP(=O)(O)O
1580	O=C(O)C(COP(=O)(O)O)OP(=O)(O)O (stereo not given)
3.16	CC(O)(CO)CCOP(=O)(O)OP(=O)(O)O (stereo not given)
8.66	CC(O)(CI)CCOP(=O)(O)OP(=O)(O)OP(=O)(O)OCCC(C)(O)CI (stereo not given)
0.0707	CC(O)(CCl)CCOP(=O)(O)OP(=O)(O)O (stereo not given) [CHLOROHYDRIN PYROPHOSPHATE]
40	CC(=O)CCOP(=O)(O)OP(=O)(O)O
0.346	CC(O)(CBr)CCOP(=O)(O)OP(=O)(O)OP(=O)(O)O (stereo not given) [BROMOHYDRIN TRIPHOSPHATE]
31.6	CCC(=O)CCOP(=O)(O)OP(=O)(O)O
0.0012	CC(O)(CI)CCOP(=O)(O)OP(=O)(O)O (stereo not given) [IODOHYDRIN PYROPHOSPHATE]
31.6	CC(=O)C(C)COP(=O)(O)OP(=O)(O)O (stereo not given)
7.07	CC(COP(=O)(O)OP(=O)(O)O)C(C)(O)CI (stereo not given)
31.6	CC(=O)CCCOP(=O)(O)OP(=O)(O)O
0.01	CC(O)(CBr)CCOP(=O)(O)OP(=O)(O)O (stereo not given) [BROMOHYDRIN PYROPHOSPHATE]
1	CCCCCN(C)CCC(O)(P(=O)(O)O)P(=O)(O)O [IBANDRONIC ACID]
